Assay results reported in paper PMC10375536, “Discovery of High-Affinity Amyloid Ligands Using a Ligand-Based Virtual Screening Pipeline” (Journal of the American Chemical Society, 2023).
Like-named read-outs stand apart in the source and are kept apart here. Blank lines part the entries; values can stand above or below the compound they belong to.

What was measured:
Aβ(1-42) [1] = conditions: cited from earlier work
Aβ(1-42) [2] = conditions: cited from earlier work; remark: listed apart in the source
Aβ(1–42) fibrils = biological target: T1, Aβ(1–42) fibrils (Homo sapiens, UniProt P05067); assay: Thioflavin T (ThT) fluorescence competition assay; type: binding; conditions: for ThT displacement in competition screen: Aβ(1–42) fibrils (250 nM); for ThT displacement in competition screen / Kd: ThT (1.0 μM), 1× PBS pH 7.4, 25 °C; for Kd: Aβ(1–42) fibrils (500 nM)
T1 construct: Monomeric Aβ(1-42) (1 mg: Rockland Immunochemicals, Limerick, PA, Lot #31541); purchased Rockland Immunochemicals, Limerick, PA Lot #31541 (a lot number; no catalogue number given)
T1 sequence (P05067 672-713 limits assumed): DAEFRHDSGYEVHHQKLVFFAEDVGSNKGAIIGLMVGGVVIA

[3] = against [3H]BF-227, ref 10.1177/1536012118796297
[4] = against [125I]BF-180, ref 10.1523/JNEUROSCI.4456-03.2004
[5] = against [125I]BF-180, ref 10.1385/JMN:24:2:247
[6] = against [125I]BF-180, ref 10.1523/JNEUROSCI.1738-05.2005
[7] = against [125I]IMSB, ref 10.1016/j.bmcl.2011.08.003
[8] = against [125I]IMSB, ref 10.1021/jm010045q
[9] = average of fits from at least three independent experiments, read-out: Kd/nM
[10] = read-out: –log(Kd/M) (converted)
[11] = direct binding, ref 10.1007/s00259-012-2261-2
[12] = direct binding, ref 10.1021/jm010045q

SMILES: COCCOCCOCCOC(=O)/C(C#N)=C/c1ccc2cc(N3CCCCC3)ccc2c1 [ANCA-11]
Kd (Aβ(1-42) [1]; direct binding, ref 10.1021/cn200018v): 1400 nM

SMILES: CNc1ccc(/C=C/c2ccc(OCCOCCOCCF)nc2)cc1 [AV-45, Florbetapir]
Ki (Aβ(1-42) [2]; [3]): 12 nM

SMILES: Cc1cc(/C=C/c2ccc(N(C)C)cc2)n2c1C=C1C=CC=[N+]1[B-]2(F)F [BAP-1]
Kd (Aβ(1-42) [1]; direct binding, ref 10.1021/cn3000058): 44.1 nM

SMILES: CCN(CC)c1ccc(/C=C/c2nc3ccccc3o2)cc1 [BF-125]
Ki (Aβ(1-42) [2]; [4]): 4.9 nM

SMILES: Nc1ccc(/C=C/c2nc3cc(F)ccc3o2)cc1 [BF-140]
Ki (Aβ(1-42) [2]; [5]): 2.1 nM

SMILES: CNc1ccc(/C=C/c2nc3cc(F)ccc3o2)cc1 [BF-145]
Ki (Aβ(1-42) [2]; [5]): 4.5 nM

SMILES: CNc1ccc(-c2ccc3ccccc3n2)cc1 [BF-158]
Ki (Aβ(1-42) [2]; [6]): > 5000 nM

SMILES: CNc1ccc(/C=C/c2nc3ccc(OCCF)cc3o2)cc1 [BF-168]
Ki (Aβ(1-42) [2]; [4]): 6.4 nM

SMILES: Nc1ccc(-c2ccc3ccccc3n2)cc1 [BF-170]
Ki (Aβ(1-42) [2]; [6]): > 5000 nM

SMILES: CNc1ccc(/C=C/c2nc3cc(I)ccc3o2)cc1 [BF-180]
Kd (Aβ(1-42) [1]; direct binding, ref 10.1523/JNEUROSCI.4456-03.2004): 10.6 nM

SMILES: CN(C)c1ncc(/C=C/c2nc3ccc(OCCF)cc3o2)s1 [BF-227]
Ki (Aβ(1-42) [2]; [3]): 12 nM
Ki (Aβ(1-42) [2]; against [125I]BF-180, ref 10.2967/jnumed.106.037556): 4.3 nM
Kd (Aβ(1-42) [1]; direct binding, ref 10.1177/1536012118796297): 15.7 nM
Kd (Aβ(1-42) [1]; two-site model, Site 1, ref 10.1007/s00259-012-2261-2): 1.72 nM
Kd (Aβ(1-42) [1]; two-site model, Site 1, ref 10.1016/j.ejphar.2009.06.042): 1.31 nM
Kd (Aβ(1-42) [1]; two-site model, Site 1, ref 10.1021/acs.molpharmaceut.8b00229): 0.82 nM
Kd (Aβ(1-42) [1]; two-site model, Site 2, ref 10.1007/s00259-012-2261-2): 56.1 nM
Kd (Aβ(1-42) [1]; two-site model, Site 2, ref 10.1016/j.ejphar.2009.06.042): 80 nM
Kd (Aβ(1-42) [1]; two-site model, Site 2, ref 10.1021/acs.molpharmaceut.8b00229): 125 nM

SMILES: O=C(O)c1cc(/N=N/c2ccc(-c3ccc(/N=N/c4ccc(O)c(C(=O)O)c4)cc3)cc2)ccc1O [CG]
Ki (Aβ(1-42) [2]; [7]): 0.43 nM
Ki (Aβ(1-42) [2]; [8]): 0.4 nM

SMILES: Oc1c(I)cc(Cl)c2cccnc12 [CQ]
Kd (Aβ(1-42) [1]; direct binding, ref 10.1016/j.bios.2017.06.030): 86 nM

SMILES: C#CCN(C)CCCOc1ccc(Cl)cc1Cl [Clorgyline]
Ki (Aβ(1-42) [2]; [3]): > 9000 nM

SMILES: COc1cc(/C=C/C(=O)CC(=O)/C=C/c2ccc(O)c(OC)c2)ccc1O [Curcumin]
Ki (Aβ(1-42) [2]; [7]): 3.57 nM

ThT displacement in competition screen (Aβ(1–42) fibrils): displaced the greatest quantity of ThT
Kd (Aβ(1–42) fibrils; [9]): 200 ± 100 nM
Kd (Aβ(1–42) fibrils; [10]): 158 nM
SMILES: CN(CCCCc1ccccc1)C(=O)Nc1ccc2c(c1)OCC(=O)N2C [E163]

ThT displacement in competition screen (Aβ(1–42) fibrils): displaced the greatest quantity of ThT
Kd (Aβ(1–42) fibrils; [9]): 600 ± 300 nM
Kd (Aβ(1–42) fibrils; [10]): 501 nM
SMILES: Cc1ccc(C)c2c(C)c(C(=O)N3CCCc4c(OCC(N)=O)cccc43)oc12 [E197]

ThT displacement in competition screen (Aβ(1–42) fibrils): displaced the greatest quantity of ThT
Kd (Aβ(1–42) fibrils; [9]): 20 ± 10 nM
Kd (Aβ(1–42) fibrils; [10]): 25.1 nM
SMILES: CCOc1ccc(CCN(C)C(=O)Nc2ccc3c(c2)CCC(=O)N3C)cc1 [E363]

ThT displacement in competition screen (Aβ(1–42) fibrils): displaced the greatest quantity of ThT
Kd (Aβ(1–42) fibrils; [9]): 20 ± 10 nM
Kd (Aβ(1–42) fibrils; [10]): 25.1 nM
bound ThT displaced (Aβ(1–42) fibrils; titration into Aβ(1–42) fibrils (500 nM) and ThT (1.0 μM)): about half
SMILES: CCOc1ccccc1OCC(=O)Nc1ccc(-c2ncc3n2CCCC3)cc1 [E570]

ThT displacement in competition screen (Aβ(1–42) fibrils): displaced the greatest quantity of ThT
Kd (Aβ(1–42) fibrils; [9]): 56 ± 6 nM
SMILES: COc1cc(F)c(C(C)NC(=O)NCCN2c3ccccc3CC2C)cc1OC (stereo not shown) [E704]

SMILES: CC(=C(C#N)C#N)c1ccc2cc(N(C)CCF)ccc2c1 [FDDNP]
Kd (Aβ(1-42) [1]; [11]): 5.52 nM

SMILES: CN(C)c1ccc(/N=N/c2nc3ccc(OCCOCCOCCF)cc3s2)cc1 [FPPDB]
Ki (Aβ(1-42) [2]; against ThS, ref 10.1021/ml200230e): 20 nM

SMILES: CNc1ccc(-c2cc3cc(O)ccc3o2)c(F)n1 [Flutafuranol]
Ki (Aβ(1-42) [2]; [3]): 42 nM

SMILES: CNc1ccc(-c2nc3ccc(O)cc3s2)cc1F [Flutemetamol]
Ki (Aβ(1-42) [2]; [3]): 65 nM

SMILES: Cc1cc(-c2ccc(/N=N/c3ccc4c(S(=O)(=O)O)cc(S(=O)(=O)O)c(N)c4c3O)c(C)c2)ccc1/N=N/c1ccc2c(S(=O)(=O)O)cc(S(=O)(=O)O)c(N)c2c1O [Honson2b (Evan's blue), Evan's blue]
Ki (Aβ(1-42) [2]; against ThS, ref 10.1016/j.nbd.2007.07.018): 180 nM

SMILES: CN(C)c1ccc(-c2ccc3cc(-c4nc5ccccc5s4)c(=N)oc3c2)cc1 [ICTAD-1]
Kd (Aβ(1-42) [1]; direct binding, ref 10.1039/d0sc02060e): 3780 nM

SMILES: COc1ccc(C=Cc2ccc(C=Cc3ccc(OC)c(C(=O)O)c3)c(I)c2)cc1C(=O)O [IMSB]
Ki (Aβ(1-42) [2]; [8]): 0.8 nM
Kd (Aβ(1-42) [1]; direct binding, ref 10.1021/ja0167147): 0.73 nM

SMILES: Cc1c(OCC(F)(F)F)ccnc1C[S+]([O-])c1nc2ccccc2[nH]1 (stereo not shown) [LNS]
Kd (Aβ(1-42) [1]; direct binding, ref 10.1021/cn500103u): 11 nM

SMILES: CC(C)CC1=[O+][B-](F)(F)OC(/C=C/c2ccc3cc(N(C)C)ccc3c2)=C1 [NAP-OB]
Kd (Aβ(1-42) [1]; direct binding, ref 10.1016/j.bioactmat.2021.10.047): 0.62 nM

SMILES: CN(C)c1ccc(/C=C/c2nc3ccc(I)cc3[nH]2)cc1 [SBIM-3]
Kd (Aβ(1-42) [1]; direct binding, ref 10.1016/j.bmc.2013.02.054): 820 nM

SMILES: COCCOCCn1c2ccccc2c2cc(/C=C/c3cc[n+](C)c4ccccc34)ccc21 [SLM]
Kd (Aβ(1-42) [1]; direct binding, ref 10.1021/acsomega.8b00475): 11400 nM

SMILES: CN(C)c1ccc(/C=C/c2ccc3ccc(OCCF)cc3n2)cc1 [SQ3]
Ki (Aβ(1-42) [2]; against [125I]ISQ, ref 10.1021/acsmedchemlett.2c00279): 230 nM

SMILES: Nc1ccc(-c2ccc3cc(OCCF)ccc3n2)cc1 [THK-523]
Kd (Aβ(1-42) [1]; [11]): 30.3 nM
Kd (Aβ(1-42) [1]; direct binding, ref 10.1093/brain/awr038): 20.7 nM

SMILES: CN(C)c1ccc(-c2ccc3cc(OCC(O)CF)ccc3n2)cc1 (stereo not shown) [THK-5105]
Kd (Aβ(1-42) [1]; direct binding, ref 10.2967/jnumed.112.117341): 35.9 nM

SMILES: CN(C)c1ccc(-c2nc3ccc(I)cc3s2)cc1 [TZDM]
Ki (Aβ(1-42) [2]; [8]): > 5000 nM
Kd (Aβ(1-42) [1]; [12]): 0.14 nM

SMILES: Cc1ccc2c(c1)sc(-c1ccc(N(C)C)cc1)[n+]2C [ThT, Thioflavin T]
Ki (Aβ(1-42) [2]; [8]): > 4000 nM
Kd (Aβ(1-42) [1]; direct binding, ref 10.1002/chem.201800501): 665 nM
Kd (Aβ(1-42) [1]; direct binding, ref 10.1016/j.bmc.2011.09.065): 2560 nM
Kd (Aβ(1-42) [1]; direct binding, ref 10.1021/acs.analchem.2c02532): 117 nM
Kd (Aβ(1-42) [1]; direct binding, ref 10.1021/acs.jmedchem.5b00571): 32 nM
Kd (Aβ(1-42) [1]; direct binding, ref 10.1021/acschemneuro.6b00380): 1940 nM
Kd (Aβ(1-42) [1]; direct binding, ref 10.1021/acschemneuro.6b00450): 430 nM

SMILES: CC1(C)C(/C=C/C2=C(c3ccc(CCC(=O)O)cc3)C(=C/C=C3/N(CCC[N+](C)(C)C)c4ccc(S(=O)(=O)O)cc4C3(C)C)/CCC2)=[N+](CCC[N+](C)(C)C)c2ccc(S(=O)(=O)O)cc21 [ZW800-1C]
Kd (Aβ(1-42) [1]; direct binding, ref 10.1038/s41551-023-01003-7): 78.9 nM

SMILES: CN(C)c1ccc(-c2cc(-c3ccnc(Br)c3)[nH]n2)cc1 [[11C]MODAG-001]
Kd (Aβ(1-42) [1]; direct binding, ref 10.1007/s00259-020-05133-x): 20 nM

SMILES: CN(C)c1ccc(/N=N/c2nc3ccc(OCCOCCOCCF)cc3s2)cc1 [[18F]FPPDB]
Kd (Aβ(1-42) [1]; direct binding, ref 10.1021/ml200230e): 45.4 nM

SMILES: CN(C)c1ccc(C=CC(=O)c2ccc(I)cc2)cc1 [[125I]DMIC]
Kd (Aβ(1-42) [1]; direct binding, ref 10.1016/j.bmc.2007.07.052): 4.2 nM

SMILES: COc1ccc(/C=C/c2ccc(/C=C/c3ccc(OC)c(C(=O)O)c3)c(I)c2)cc1C(=O)O [[125I]IMSB]
Kd (Aβ(1-42) [1]; [12]): 0.73 nM

SMILES: O=[N+]([O-])c1ccc2c(c1)Sc1cc(OC/C=C/I)ccc1N2 [[125I]SIL23]
Kd (Aβ(1-42) [1]; direct binding, ref 10.1371/journal.pone.0055031): 635 nM

SMILES: CN(C)c1ccc(-c2nc3ccc(I)cc3s2)cc1 [[125I]TZDM]
Kd (Aβ(1-42) [1]; direct binding, ref 10.1016/j.bmc.2011.03.029): 0.45 nM
Kd (Aβ(1-42) [1]; direct binding, ref 10.5012/bkcs.2008.29.9.1765): 0.13 nM

SMILES: O=C(O)c1cc(C=Cc2ccc(C=Cc3ccc(O)c(C(=O)O)c3)c(I)c2)ccc1O [[125]ISB]
Kd (Aβ(1-42) [1]; [12]): 0.15 nM
